This note sets out measurements from US20260092083A1, “VANCOMYCIN DERIVATIVES WITH SIDEROPHORE MODIFICATION AS NOVEL REPURPOSED ANTIBIOTICS TO COMBAT GRAM-NEGATIVE BACTERIAL INFECTION” (priority 2023, published 2026).

In brackets after ≈: the same amount, converted by molar mass. Some results are limits rather than exact numbers.

Type in all cases: cell-based
Assay [1] concerns P. aeruginosa (multi-pump-gene mutant) PAM1626. As to the kind of experiment: Broth microdilution MIC, P. aeruginosa efflux-deficient. Conditions: Pseudomonas aeruginosa, read-out: MIC (μg/mL) Gram-negative PSA Efflux. The method, then: (§1) The test compounds including vancomycin hydrochloride were supplied as a 6.4 mg/mL solution in 100% dimethyl sulfoxide (DMSO) aliquoted into individual wells of a 96-well plate (50 μL per well). […] Standardized inocula were added to the MIC test plates, which were incubated for the prescribed times at 35° C. The N. gonorrhoeae strain was incubated in an atmosphere containing 5% CO2.
(§2) The final optical density of each well at 600 nm was measured using a Tecan Spark plate reader. The compound concentration versus OD600 data were then curve fit using custom software. An MIC value was defined as the lowest compound concentration that led to an OD600 value≤0.15 for the E. coli, K. pneumoniae, P. aeruginosa, A. baumannii, or S. aureus strains. For the N. gonorrhoeae strain, an OD600 value≤0.19 was used as a cutoff to define an MIC value; this higher cut-off value was required because the N. gonorrhoeae MIC plates were covered with plastic seals that increased the background OD600 value.
(§3) JMI Laboratories followed current CLSI quality assurance practices when performing the susceptibility tests. MIC values were validated by concurrently testing the CLSI-recommended ATCC QC reference strains S. aureus ATCC 29213 and K. pneumoniae ATCC 700603. The inoculum density during susceptibility testing was monitored by bacterial colony counts. Where applicable, QC ranges for tested reference strains were those ranges approved or published by CLSI for testing in CAMHB. […] Importantly, the CLSI reference method for testing N. gonorrhoeae is the agar dilution MIC method, which was not used here. Thus, CLSI MIC QC ranges for N. gonorrhoeae could not be applied to the antimicrobials studied here.
(§4) Abbreviations: EC, E. coli (wild-type) BW25113; EC efflux^−, E. coli (tolC) JW5503-1; KPN, K. pneumoniae ATCC 700603; PSA, P. aeruginosa PAO1; PSA efflux^−, P. aeruginosa (multi-pump-gene mutant) PAM1626; ACB, A. baumannii JMI #1186154; GC, N. gonorrhoeae WHO-Z; SA, S. aureus ATCC 29213. Broth microdilution MIC values were measured in iron-depleted CAMHB for all strains except for GC, which was tested in fastidious broth.

For assay [2], the system named is K. pneumoniae ATCC 700603. Put plainly: Broth microdilution MIC, K. pneumoniae. To be noted: Klebsiella pneumoniae, ATCC700603, read-out: MIC (μg/mL) Gram-negative KPN. As to the method: as §1, §2, §3, §4
On the technique in general: Dilution methods test growth across graded concentrations, often in twofold steps.

A further assay has as its system P. aeruginosa PAO1. As to the kind of experiment: Broth microdilution MIC, P. aeruginosa. To be noted: Pseudomonas aeruginosa, iron-depleted CAMHB, OD600 ≤0.15, read-out: MIC (μg/mL) Gram-negative PSA. The method, then:
as §1, §2, §3, §4

A further assay relates to N. gonorrhoeae WHO-Z. As to the kind of experiment: Broth microdilution MIC, N. gonorrhoeae. Conditions: Neisseria gonorrhoeae, read-out: MIC (μg/mL) Gram-negative GC. As to the method: as §1, §2, §3, §4
The subject of another assay is E. coli (tolC) JW5503-1. Put plainly: Broth microdilution MIC, E. coli efflux-deficient (tolC). Conditions: Escherichia coli, read-out: MIC (μg/mL) Gram-negative EC Efflux. The method, then:
as §1, §2, §3, §4

For assay [3], the system named is E. coli (wild-type) BW25113. Put plainly: Broth microdilution MIC, E. coli wild-type. To be noted: Escherichia coli, iron-depleted CAMHB, OD600 ≤0.15, read-out: MIC (μg/mL) Gram-negative EC. As to the method:
as §1, §2, §3, §4

Assay [4] concerns A. baumannii JMI #1186154. Put plainly: Broth microdilution MIC, A. baumannii. Conditions: Acinetobacter baumannii, iron-depleted CAMHB, OD600 ≤0.15, read-out: MIC (μg/mL) Gram-negative ACB. As to the method:
as §1, §2, §3, §4

Another assay has as its system S. aureus ATCC 29213. As to the kind of experiment: Broth microdilution MIC, S. aureus. To be noted: Staphylococcus aureus, ATCC29213, iron-depleted CAMHB, OD600 ≤0.15, read-out: MIC (μg/mL) Gram positive SA. As to the method: as §1, §2, §3, §4

`CNC(CC(C)C)C(=O)N[C@H]1C(=O)N[C@@H](CC(N)=O)C(=O)N[C@H]2C(=O)N[C@H]3C(=O)N[C@H](C(=O)N[C@@H](C(=O)NCc4cn(CCNC(=O)c5ccc(O)c(O)c5Cl)nn4)c4cc(O)cc(O)c4-c4cc3ccc4O)[C@H](O)c3ccc(c(Cl)c3)Oc3cc2cc(c3OC2O[C@H](CO)C(O)C(O)[C@H]2O[C@H]2CC(C)(N)[C@H](O)C(C)O2)Oc2ccc(cc2Cl)[C@H]1O` (some centres unmarked) [Compound 19]: the MIC (in assay [1]; in assay [2]; with P. aeruginosa PAO1; with N. gonorrhoeae WHO-Z; with E. coli (tolC) JW5503-1; in assay [3]) was more than 64 µg/mL each time. Moreover, the MIC came to 1 µg/mL (≈ 0.574 µM) in assay [4] and 8 µg/mL (≈ 4.59 µM) in the assay on S. aureus ATCC 29213.

In the case of `CNC(CC(C)C)C(=O)NC1C(=O)NC(CC(N)=O)C(=O)NC2C(=O)NC3C(=O)NC(C(=O)N[C@H](C(=O)O)c4cc(O)c(CNCCCNC(=O)c5ccc(O)c(O)c5Cl)c(O)c4-c4cc3ccc4O)C(O)c3ccc(c(Cl)c3)Oc3cc2cc(c3OC2OC(CO)C(O)C(O)C2OC2CC(C)(N)C(O)C(C)O2)Oc2ccc(cc2Cl)C1O` (some centres unmarked) [Compound 22], the MIC in assay [1] was more than 64 µg/mL; in assay [2] it was more than 64 µg/mL; in the assay on P. aeruginosa PAO1 it was more than 64 µg/mL; with N. gonorrhoeae WHO-Z, more than 64 µg/mL; in the assay with E. coli (tolC) JW5503-1, 32 µg/mL (≈ 18.8 µM); in assay [3], 16 µg/mL (≈ 9.38 µM). Besides, the MIC in assay [4] is 4 µg/mL (≈ 2.34 µM); in the assay with S. aureus ATCC 29213 it was 64 µg/mL (≈ 37.5 µM).

In the case of `CNC(CC(C)C)C(=O)NC1C(=O)NC(CC(N)=O)C(=O)NC2C(=O)NC3C(=O)NC(C(=O)N[C@H](C(=O)O)c4cc(O)c(CNCCCCNC(=O)c5ccc(O)c(O)c5Cl)c(O)c4-c4cc3ccc4O)C(O)c3ccc(c(Cl)c3)Oc3cc2cc(c3OC2OC(CO)C(O)C(O)C2OC2CC(C)(N)C(O)C(C)O2)Oc2ccc(cc2Cl)C1O` (some centres unmarked) [Compound 23], the MIC in assay [1] was more than 64 µg/mL; in assay [2], more than 64 µg/mL; in the assay with P. aeruginosa PAO1, more than 64 µg/mL; with N. gonorrhoeae WHO-Z, more than 64 µg/mL; in the assay on E. coli (tolC) JW5503-1, more than 64 µg/mL; in assay [3], 64 µg/mL (≈ 37.2 µM). The MIC in assay [4] turned out to be 8 µg/mL (≈ 4.65 µM); in the assay with S. aureus ATCC 29213 it was 64 µg/mL (≈ 37.2 µM).

For the compound `CNC(CC(C)C)C(=O)NC1C(=O)NC(CC(N)=O)C(=O)NC2C(=O)NC3C(=O)NC(C(=O)N[C@H](C(=O)O)c4cc(O)c(CNCCNC(=O)c5cccc(O)c5O)c(O)c4-c4cc3ccc4O)C(O)c3ccc(c(Cl)c3)Oc3cc2cc(c3OC2OC(CO)C(O)C(O)C2OC2CC(C)(N)C(O)C(C)O2)Oc2ccc(cc2Cl)C1O` (some centres unmarked) [Compound 24], the MIC (in assay [1]; in assay [2]; with P. aeruginosa PAO1; with N. gonorrhoeae WHO-Z; in the assay on E. coli (tolC) JW5503-1; in assay [3]) was more than 64 µg/mL throughout. Moreover, the MIC came out at 8 µg/mL (≈ 4.83 µM) in assay [4] and 32 µg/mL (≈ 19.3 µM) in the assay with S. aureus ATCC 29213.

As to `CNC(CC(C)C)C(=O)NC1C(=O)NC(CC(N)=O)C(=O)NC2C(=O)NC3C(=O)NC(C(=O)N[C@H](C(=O)O)c4cc(O)c(CNCCN[S@SP3](=O)(=O)c5ccc(O)c(O)c5)c(O)c4-c4cc3ccc4O)C(O)c3ccc(c(Cl)c3)Oc3cc2cc(c3OC2OC(CO)C(O)C(O)C2OC2CC(C)(N)C(O)C(C)O2)Oc2ccc(cc2Cl)C1O` (some centres unmarked) [Compound 25], the MIC in assay [1] was more than 64 µg/mL; in assay [2], more than 64 µg/mL; in the assay on P. aeruginosa PAO1, more than 64 µg/mL; in the assay on N. gonorrhoeae WHO-Z, more than 64 µg/mL; with E. coli (tolC) JW5503-1, 64 µg/mL (≈ 37.8 µM); in assay [3], 16 µg/mL (≈ 9.45 µM). The figures for the MIC (in assay [4]; in the assay on S. aureus ATCC 29213) were 32 µg/mL (≈ 18.9 µM) and 4 µg/mL (≈ 2.36 µM), respectively.

For the compound `CNC(CC(C)C)C(=O)NC1C(=O)NC(CC(N)=O)C(=O)NC2C(=O)NC3C(=O)NC(C(=O)N[C@H](C(=O)O)c4cc(O)c(CNCc5cn(CCCNC(=O)c6ccc(O)c(O)c6Cl)nn5)c(O)c4-c4cc3ccc4O)C(O)c3ccc(c(Cl)c3)Oc3cc2cc(c3OC2OC(CO)C(O)C(O)C2OC2CC(C)(N)C(O)C(C)O2)Oc2ccc(cc2Cl)C1O` (some centres unmarked) [Compound 27], the MIC in assay [1] was more than 64 µg/mL; in assay [2], more than 64 µg/mL; in the assay on P. aeruginosa PAO1 it was more than 64 µg/mL; in the assay with N. gonorrhoeae WHO-Z, more than 64 µg/mL; in the assay on E. coli (tolC) JW5503-1, 64 µg/mL (≈ 35.8 µM); in assay [3], 16 µg/mL (≈ 8.95 µM). Also, the MIC in assay [4] is 16 µg/mL (≈ 8.95 µM); in the assay on S. aureus ATCC 29213, 8 µg/mL (≈ 4.48 µM).

Take `CNC(CC(C)C)C(=O)NC1C(=O)NC(CC(N)=O)C(=O)NC2C(=O)NC3C(=O)NC(C(=O)N[C@H](C(=O)O)c4cc(O)cc(O)c4-c4cc3ccc4O)C(O)c3ccc(c(Cl)c3)Oc3cc2cc(c3OC2OC(CO)C(O)C(O)C2OC2CC(C)(NCCNC(=O)c3ccc(O)c(O)c3Cl)C(O)C(C)O2)Oc2ccc(cc2Cl)C1O` (some centres unmarked) [Compound 28]: the MIC (in assay [1]; in assay [2]; in the assay with P. aeruginosa PAO1; with N. gonorrhoeae WHO-Z; with E. coli (tolC) JW5503-1; in assay [3]) was more than 64 µg/mL in each case. In addition, the MIC is 32 µg/mL (≈ 19.2 µM) in assay [4] and 4 µg/mL (≈ 2.41 µM) in the assay on S. aureus ATCC 29213.

As for `CC(C)C[C@H](C(=O)N[C@H]1C(=O)N[C@@H](CC(N)=O)C(=O)N[C@H]2C(=O)N[C@H]3C(=O)N[C@H](C(=O)N[C@H](C(=O)O)c4cc(O)cc(O)c4-c4cc3ccc4O)[C@H](O)c3ccc(c(Cl)c3)Oc3cc2cc(c3O[C@@H]2O[C@H](CO)C(O)C(O)[C@H]2O[C@H]2CC(C)(N)[C@H](O)[C@H](C)O2)Oc2ccc(cc2Cl)[C@H]1O)N(C)CCNC(=O)c1ccc(O)c(O)c1Cl` (some centres unmarked) [Compound 30], the MIC in assay [1] is more than 64 µg/mL; in assay [2], more than 64 µg/mL; in the assay on P. aeruginosa PAO1, more than 64 µg/mL; with N. gonorrhoeae WHO-Z it was more than 64 µg/mL; in the assay with E. coli (tolC) JW5503-1, more than 64 µg/mL; in assay [3], 64 µg/mL (≈ 38.5 µM). The values for the MIC (in assay [4]; in the assay on S. aureus ATCC 29213) were 32 µg/mL (≈ 19.2 µM) and 4 µg/mL (≈ 2.41 µM), respectively.

In the case of `CNC(CC(C)C)C(=O)NC1C(=O)NC(CC(N)=O)C(=O)NC2C(=O)NC3C(=O)NC(C(=O)N[C@H](C(=O)O)c4cc(O)cc(O)c4-c4cc3ccc4O)C(O)c3ccc(c(Cl)c3)Oc3cc2cc(c3OC2OC(CO)C(O)C(O)C2OC2CC(C)(NCCCc3cn(CCCNC(=O)c4ccc(O)c(O)c4Cl)nn3)C(O)C(C)O2)Oc2ccc(cc2Cl)C1O` (some centres unmarked) [Compound 31], the MIC in assay [1] was more than 64 µg/mL; in assay [2], more than 64 µg/mL; with P. aeruginosa PAO1 it was more than 64 µg/mL; with N. gonorrhoeae WHO-Z, more than 64 µg/mL; in the assay with E. coli (tolC) JW5503-1, 32 µg/mL (≈ 17.9 µM); in assay [3] it was more than 64 µg/mL. Further, the figures for the MIC (in assay [4]; with S. aureus ATCC 29213) were 64 µg/mL (≈ 35.8 µM) and 8 µg/mL (≈ 4.48 µM), respectively.

As to `CC(C)CC(C(=O)NC1C(=O)NC(CC(N)=O)C(=O)NC2C(=O)NC3C(=O)NC(C(=O)N[C@H](C(=O)O)c4cc(O)cc(O)c4-c4cc3ccc4O)C(O)c3ccc(c(Cl)c3)Oc3cc2cc(c3OC2OC(CO)C(O)C(O)C2OC2CC(C)(N)C(O)C(C)O2)Oc2ccc(cc2Cl)C1O)N(C)CCCc1cn(CCCNC(=O)c2ccc(O)c(O)c2Cl)nn1` (some centres unmarked) [Compound 32], the MIC (in assay [1]; in assay [2]; in the assay on P. aeruginosa PAO1; in the assay with N. gonorrhoeae WHO-Z; in the assay on E. coli (tolC) JW5503-1; in assay [3]) was more than 64 µg/mL each time. Further, the MIC (in assay [4]; in the assay on S. aureus ATCC 29213) was 32 µg/mL (≈ 17.9 µM) throughout.
